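How tested: cells in 96-well plates exposed to compound for 48 hours at five concentrations. Here, GI50 denotes the concentration required for 50% inhibition of growth.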 Activity calls are given as the source filed them. No stated cut-off is given here; in the data, active = GI50 up to about 1.1 µM and inactive = higher.
Assays:
Test in all cases: NCI-60 cell line screen, 48 h
[1] = tested on: UO-31
[2] = tested on: M14
[3] = tested on: HOP-62
[4] = tested on: SW-620
[5] = tested on: HL-60
[6] = tested on: CCRF-CEM
[7] = tested on: UACC-62
[8] = tested on: LOX IMVI
[9] = tested on: KM12
[10] = tested on: NCI-H226
[11] = tested on: A549
[12] = tested on: MOLT-4
[13] = tested on: RXF 393
[14] = tested on: OVCAR-5
[15] = tested on: Malme-3M
[16] = tested on: UACC-257
[17] = tested on: CAKI-1

Measured: GI50

O=C1C(c2ccccc2)=[N+]([O-])c2cc([N+](=O)[O-])ccc21
inactive: [1] 52.1 µM | [2] > 10 µM | [3] > 100 µM | [4] 60.3 µM | [5] 7.52 µM | [6] 8.93 µM | [7] 13.1 µM | [8] 14.3 µM | [9] 20.5 µM | [10] 73.3 µM | [11] 32 µM | [12] 18.7 µM | [13] 15.9 µM | [14] 69.8 µM | [15] 20.6 µM | [16] 18.5 µM

C=CCCC(OCOCCOC)c1cc(C)c(O[Si](C)(C)C(C)(C)C)c(C)c1 (configuration not stated)
inactive: [1] 11.7 µM | [2] 34.4 µM | [3] 18.7 µM | [4] 16 µM | [5] 3.28 µM | [6] 13.3 µM | [7] 10.7 µM | [8] 13 µM | [9] 13.5 µM | [10] 13.5 µM | [11] 16.4 µM | [12] 4.4 µM | [13] 13.8 µM | [14] 17 µM | [15] 19.6 µM | [16] 4.58 µM

NC1=NS(=O)(=O)Nc2nc(-c3ccc([N+](=O)[O-])o3)[nH]c21
inactive: [1] 16.2 µM | [17] 21.3 µM | [2] 14.9 µM | [3] 18.5 µM | [4] 13.8 µM | [5] 1.9 µM | [6] 3.6 µM | [7] 15.9 µM | [8] 15.9 µM | [9] 18.6 µM | [11] > 100 µM | [12] 9.62 µM | [13] 12.9 µM | [14] 19.4 µM | [15] 16.7 µM

COC(=O)C(C#N)C1NC(=O)c2ccccc21 (configuration not stated)
inactive: [1] > 100 µM | [2] > 100 µM | [3] > 100 µM | [4] > 100 µM | [5] > 100 µM | [6] > 100 µM | [7] > 100 µM | [8] > 100 µM | [9] > 100 µM | [10] > 100 µM | [11] > 100 µM | [12] > 100 µM | [13] > 100 µM | [14] > 100 µM | [15] > 100 µM | [16] > 100 µM

O=C1OC(=O)C2C3C=CC(C12)C1C2C=CC2C31 (configuration not stated)
inactive: [17] > 100 µM | [3] > 100 µM | [4] > 100 µM | [5] > 100 µM | [6] > 100 µM | [8] > 100 µM | [9] > 100 µM | [10] > 100 µM | [11] > 100 µM | [12] > 100 µM | [13] > 100 µM | [14] > 100 µM | [15] > 100 µM | [16] > 100 µM
